# Measurements from patent publication US6537948B1, “Uracil compounds and use thereof” (Sumitomo Chemical Company, Limited, priority 2000, dated 2003).
# Experiments:
# Assay type in all cases: in vivo
# [1] = test system: large crabgrass (Digitaria sanguinalis); test: Test Example 7: foliar spray, herbicidal activity index; parameters: key: “0” means that there was no or little difference in the degree of germination or growth between the treated and the untreated tested plants at the time of examination; “10” means that the test plants died complete or their germination or growth was completely inhibited; details: 4 days after application, index 0-10
# Protocol: (§1) A plastic pot having longer side of 27 cm, shorter side of 19 cm and depth of 7 cm was filled with soil and then seeded with large crabgrass (Digitaria sanguinalis) and giant foxtail (Setaria faberi). Nine days after, barnyardgrass (Echinochloa crus-galli) was seeded therein and grown for 15 days in a greenhouse. Further, a plastic pot having longer side of 16.5 cm, shorter side of 12 cm and depth of 7 cm was filled with soil and then seeded with wild oat (Avena fatua), and grown for 18 days in a greenhouse. Then, each of the present compound 1-45 and B was formulated into an emulsifiable concentrate according to Formulation Example 2 and then diluted to the prescribed amount with water containing a spreading agent and the dilution was uniformly sprayed over the foliage of the test plants with a sprayer at a rate of 1000 liters per hectare. After the application, the test plants were grown in the greenhouse for 4 days, and the herbicidal activity was examined. (In the Table 13, the test plants are shown as follows.
# (§2) Barnyardgrass: B, Large crabgrass: LC, Giant foxtail: GF, Wild oat: W
# [2] = test system: giant foxtail (Setaria faberi); test: as above; parameters: key: “0” means that there was no or little difference in the degree of germination or growth between the treated and the untreated tested plants at the time of examination; “10” means that the test plants died complete or their germination or growth was completely inhibited; details: 4 days after application, index 0-10
# Protocol: as §1, §2
# [3] = test system: barnyardgrass (Echinochloa crus-galli); test: as above; parameters: key: “0” means that there was no or little difference in the degree of germination or growth between the treated and the untreated tested plants at the time of examination; “10” means that the test plants died complete or their germination or growth was completely inhibited; details: 4 days after application, index 0-10
# Protocol: as §1, §2
# wild oat (Avena fatua) = test: as above; details: 4 days after application, index 0-10
# Protocol: as §1, §2
# [4] = test system: large crabgrass (Digitaria sanguinalis); test: Test Example 8: foliar spray, herbicidal activity index; parameters: key: “0” means that there was no or little difference in the degree of germination or growth between the treated and the untreated tested plants at the time of examination; “10” means that the test plants died complete or their germination or growth was completely inhibited; details: foliar spray 373 liters per hectare, examined after 4 days, index 0-10
# Protocol: (§3) A plastic pot having longer side of 16.5 cm, shorter side of 12 cm and depth of 7 cm was filled with soil and then seeded with large crabgrass (Digitaria sanguinalis), giant foxtail (Setaria faberi) and johnsongrass (Sorghum halepense). These test plants were grown in a greenhouse for 25 days. Then, each of the present compound 2-52 and C was formulated into an emulsifiable concentrate according to Formulation Example 2 and then diluted to the prescribed amount with water containing a spreading agent and the dilution was uniformly sprayed over the foliage of the test plants with a sprayer at a rate of 373 liters per hectare. After the application, the test plants were grown in the greenhouse for 4 days, and the herbicidal activity was examined. (In the Table 14, the test plants are shown as follows.
# (§4) Large crabgrass: LC, Giant foxtail: GF, Johnsongrass: J
# [5] = test system: giant foxtail (Setaria faberi); test: as above; parameters: key: “0” means that there was no or little difference in the degree of germination or growth between the treated and the untreated tested plants at the time of examination; “10” means that the test plants died complete or their germination or growth was completely inhibited; details: foliar spray 373 liters per hectare, examined after 4 days, index 0-10
# Protocol: as §3, §4
# [6] = test system: johnsongrass (Sorghum halepense); test: as above; parameters: key: “0” means that there was no or little difference in the degree of germination or growth between the treated and the untreated tested plants at the time of examination; “10” means that the test plants died complete or their germination or growth was completely inhibited; details: foliar spray 373 liters per hectare, examined after 4 days, index 0-10
# Protocol: as §3, §4
# [7] = test system: ivyleaf morningglory (Ipomoea hederacea); test: Test Example 1: foliar treatment of field; details: foliar spray, dosage 125 g/ha, 16 days after application
# [8] = test system: velvetleaf (Abutilon theophrasti); test: Test Example 1: foliar treatment of field; details: foliar spray, dosage 125 g/ha, 16 days after application
compound,measurement,setting,value
"COc1nc(OC)nc(Oc2cc(-n3c(=O)cc(C(F)(F)F)n(C)c3=O)c(F)cc2Cl)n1 [B, reference compound]",Herbicidal activity LC,[1]; dosage 32 g/ha,8
same,Herbicidal activity LC,[1]; dosage 125 g/ha,8
same,Herbicidal activity GF,[2]; dosage 32 g/ha,6
same,Herbicidal activity GF,[2]; dosage 125 g/ha,8
same,Herbicidal activity B,[3]; dosage 32 g/ha,6
same,Herbicidal activity B,[3]; dosage 125 g/ha,8
same,Herbicidal activity W,wild oat (Avena fatua); dosage 32 g/ha,6
same,Herbicidal activity W,wild oat (Avena fatua); dosage 125 g/ha,9
"CC(=O)Nc1cccnc1Oc1cc(-n2c(=O)cc(C(F)(F)F)n(N)c2=O)c(F)cc1Cl [C, reference compound]",Herbicidal activity LC,[4]; dosage 32 g/ha,7
same,Herbicidal activity LC,[4]; dosage 125 g/ha,9
same,Herbicidal activity GF,[5]; dosage 32 g/ha,6
same,Herbicidal activity GF,[5]; dosage 125 g/ha,9
same,Herbicidal activity J,[6]; dosage 32 g/ha,8
same,Herbicidal activity J,[6]; dosage 125 g/ha,10
"COC(=O)COc1cc(OC)nc(Oc2cc(-n3c(=O)cc(C(F)(F)F)n(C)c3=O)c(F)cc2Cl)n1 [Compound 1-45, 2-{2-chloro-4-fluoro-5-[3-methyl-2,6-dioxo-4-(trifluoromethyl)-1,2,3,6-tetrahydropyrimidin-1-yl]phenoxy}-6-methoxy-4-(methoxycarbonyl)methoxypyrimidine]",growth of ivyleaf morningglory (herbicidal activity),[7],completely controlled
same,growth of velvetleaf (herbicidal activity),[8],completely controlled
same,Herbicidal activity LC,[1]; dosage 32 g/ha,10
same,Herbicidal activity LC,[1]; dosage 125 g/ha,10
same,Herbicidal activity GF,[2]; dosage 32 g/ha,10
same,Herbicidal activity GF,[2]; dosage 125 g/ha,10
same,Herbicidal activity B,[3]; dosage 32 g/ha,10
same,Herbicidal activity B,[3]; dosage 125 g/ha,10
same,Herbicidal activity W,wild oat (Avena fatua); dosage 32 g/ha,9
same,Herbicidal activity W,wild oat (Avena fatua); dosage 125 g/ha,9
"COC(=O)C(C)Nc1cccnc1Oc1cc(-n2c(=O)cc(C(F)(F)F)n(C)c2=O)c(F)cc1Cl (stereo not drawn) [Compound 2-52, 2-{2-chloro-4-fluoro-5-[3-methyl-2,6-dioxo-4-(trifluoromethyl)-1,2,3,6-tetrahydropyrimidin-1-yl]phenoxy}-3-{1-(methoxycarbonyl)ethylamino}pyridine]",Herbicidal activity LC,[4]; dosage 32 g/ha,9
same,Herbicidal activity LC,[4]; dosage 125 g/ha,10
same,Herbicidal activity GF,[5]; dosage 32 g/ha,9
same,Herbicidal activity GF,[5]; dosage 125 g/ha,10
same,Herbicidal activity J,[6]; dosage 32 g/ha,10
same,Herbicidal activity J,[6]; dosage 125 g/ha,10
